Experimental data as given in ChEMBL document CHEMBL1629565, “Relationships among ciprofloxacin, gatifloxacin, levofloxacin, and norfloxacin MICs for fluoroquinolone-resistant Escherichia coli clinical isolates” (2009).
In brackets after ≈: the same amount, converted by molar mass. Several values for one entry are separate records, joined by “and”; a condition that tells them apart may be missing. Equal values may be shown once.

How the values were obtained:
Format in all cases: functional
Escherichia coli [1] = assay: Antimicrobial activity against fluoroquinolone-resistant Escherichia coli clinical isolate by Etest
Escherichia coli [2] = assay: Antimicrobial activity against fluoroquinolone-resistant Escherichia coli clinical isolate by agar dilution method
Escherichia coli [3] = assay: Antimicrobial activity against Escherichia coli ATCC 25922 by agar dilution method
Escherichia coli [4] = assay: Antimicrobial activity against fluoroquinolone-sensitive Escherichia coli clinical isolate by Etest

Structure (SMILES)	MIC (Escherichia coli [1])	MIC (Escherichia coli [2])	MIC (Escherichia coli [3])	MIC (Escherichia coli [4])	MIC (Escherichia coli [4]; Escherichia coli, read-out: MIC)
COc1c(N2CCNC(C)C2)c(F)cc2c(=O)c(C(=O)O)cn(C3CC3)c12 (stereo unspecified) [GATIFLOXACIN]	8 µg/mL (≈ 21.3 µM)	23 µg/mL (≈ 61.3 µM)	0.004 µg/mL (≈ 0.0107 µM)		
CCn1cc(C(=O)O)c(=O)c2cc(F)c(N3CCNCC3)cc21 [NORFLOXACIN]	16 µg/mL (≈ 50.1 µM)	232 µg/mL (≈ 727 µM)	0.03 µg/mL (≈ 0.0939 µM)	0.06 µg/mL and 0.02 µg/mL	
C[C@H]1COc2c(N3CCN(C)CC3)c(F)cc3c(=O)c(C(=O)O)cn1c23.C[C@H]1COc2c(N3CCN(C)CC3)c(F)cc3c(=O)c(C(=O)O)cn1c23.O [LEVOFLOXACIN]	8 µg/mL	39 µg/mL		0.023 µg/mL	0.042 µg/mL
